Measurements taken from publication PMC6302903, “Protein and Chemical Determinants of BL-1249 Action and Selectivity for K2P Channels” (ACS Chemical Neuroscience, 2018).

Target: T1, K2P2.1(TREK-1) F185L (Mus musculus, UniProt P97438, F200L)
T1 construct: expressed in transfected cells; host or cells: Xenopus laevis oocytes, mRNA injected
Assay: TEVC of K2P2.1(TREK-1) mutant F185L
Format: cell-based
Conditions: Xenopus oocytes
From the text: To identify K2P2.1(TREK-1) M2 residues that might participate in the BL-1249 response, we mapped the residues that differ between K2P2.1(TREK-1) and K2P4.1(TRAAK) in the context of the K2P2.1(TREK-1) structure[6] (Figure 5B,C). Two K2P2.1(TREK-1) M2 residues stood out as candidates that could explain the reduction in BL-1249 response when the entire M2 helix was replaced with M2 from K2P4.1(TRAAK). One is at the M2/M4 interface and occurs between Phe172 and Arg297 via a π–cation interaction that would be lost when Phe172 is replaced with the equivalent K2P4.1(TRAAK) residue Met134 (Figure 5C, right inset). […] To assess the importance of these interactions in the context of BL-1249 response, we made the K2P2.1(TREK-1) mutants F172M and F185L and measured their responses to BL-1249 (Figure 5D). […]
Xenopus laevis oocytes were harvested in accordance with UCSF IACUC protocol AN129690 and digested in calcium-free ND-96 (96 mM NaCl, 2 mM KCl, 3.8 mM MgCl2) immediately following harvest, as previously described.[6],[10] […] Defolliculated stage V–VI oocytes were injected with 0.2–6.0 ng of mRNA in 50 nL, and currents were recorded 24–48 h after injection. mRNA was synthesized from plasmid DNA using mMessage mMachine Kit (T7 promoter, Ambion, Life Technologies) and purified using RNEasy Kit (Qiagen). […]

T1 sequence (P97438 1-411 isoform P97438-2 F185L): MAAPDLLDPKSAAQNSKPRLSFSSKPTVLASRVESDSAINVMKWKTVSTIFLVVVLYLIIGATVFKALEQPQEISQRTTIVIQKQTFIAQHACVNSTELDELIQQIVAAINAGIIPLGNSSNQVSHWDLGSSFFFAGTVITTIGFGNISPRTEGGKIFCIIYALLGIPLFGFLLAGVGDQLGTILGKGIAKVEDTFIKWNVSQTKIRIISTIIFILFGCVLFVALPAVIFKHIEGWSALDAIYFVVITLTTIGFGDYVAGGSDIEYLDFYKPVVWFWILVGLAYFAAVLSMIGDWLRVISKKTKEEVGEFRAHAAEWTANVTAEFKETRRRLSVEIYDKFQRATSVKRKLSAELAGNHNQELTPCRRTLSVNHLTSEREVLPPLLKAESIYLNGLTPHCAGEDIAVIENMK

c1ccc(-c2nnn[nH]2)c(Nc2cccc3c2CCCC3)c1 [BL-1249, (5,6,7,8-tetrahydro-naphthalen-1-yl)-[2-(1H-tetrazol-5-yl)-phenyl]-amine]
EC50: 27 ± 5 µM
